Data published in patent US10704076B2, “Multi-tiered high through-put screen for compounds effective against bacterial biofilm and compounds effective for inhibiting and eradicating bacterial biofilm” (University of Cincinnati, priority 2013, dated 2020).

System: differentiated THP-1 cells
Experiment: LDH cytotoxicity assay
Type: cell-based
Settings: 48 hr
Experimental: Following identification as an HTS broad spectrum hit and confirmation by CLSM, a cytotoxicity assay was performed on compounds 3, 7, 8 and 11. The lactate dehydrogenase assay (LDH) is commonly used as an enzymatic marker to quantitatively correlate cell death via leakage of the enzyme from dead or dying cells. An LDH assay was used to investigate the toxicity of compounds on A549 and differentiated THP-1 cells. […] Finally, 25 μl of Stop Solution was added, incubated at room temperature for 5 min, and the fluorescence signal was detected using a Synergy 2 Multi-Mode Microplate Reader (Ex. […]/Em. 590). The unit of measurement is the Relative Fluorescence Unit (RFU). The cytotoxicity of the compounds was calculated based on the percentage of compound RFUs measured (Experimental) in comparison to the RFU of the DMSO treated cells as those that were completely lysed (Maximum LDH Release). […]
The cytotoxicity of the broad agent hit compounds was examined in differentiated human THP-1, a human acute monocytic leukemia cell line and A549, a human lung adenocarcinoma epithelial cell line. […] Compounds were assessed at varying concentrations of 0, 260, 290, 300, and 570 μM for compounds 7, 11, 8, and 3, respectively, for the cytotoxicity assays. […]

Cn1sc(Cl)c(C#N)c1=O [Compound 3, 5-chloro-2-methyl-3-oxo-1,2-thiazole-4-carbonitrile]
cytotoxicity (LDH) (57 μM): 60% | cytotoxicity (LDH), change against 57 μM (570 μM): decreased
